This is an account of results in patent publication US20250282820A1, “PEPTIDE COMPLEX HAVING TRKB BINDING ACTIVITY” (PEPTIDREAM INC, priority 2022, published 2025).

Test [1] concerns the target T1, TrkB (CellSensor TrkB-NFAT-bla CHO-K1 Cell) (Homo sapiens, UniProt Q16620).
T1 construct: host or cells: CHO-K1 (CellSensor TrkB-NFAT-bla CHO-K1)
The test can be described thus: NFAT transcriptional reporter assay for TrkB agonist activity. In kind it is cell-based. The settings on record: class = peptide concentration giving 50% or more activity; BDNF maximum signal = 100%, no stimulation = 0%; 5 hours culture. The essentials:
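CHO-K1 TrkB-NFAT-bla cells, 12,500 per well, treated overnight-seeded with peptide or BDNF for 5 h, then CCF4-AM substrate 2 h in the dark; 460/535 nm emission ratio. Activity scaled to maximal BDNF signal (100%) and unstimulated (0%); grades A/B/C mean ≥50% activity at 1, 10 or 100 nM.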
In general terms: A reporter such as luciferase makes a cellular process visible.

For another test, the target named is TrkB (Homo sapiens, UniProt Q16620). The test can be described thus: PathHunter eXpress TrkB Functional Assay (phosphorylation of TrkB). In kind it is cell-based. As to conditions: maximum signal induced by BDNF = 100%; stimulation for 3 hours. A digest of the protocol: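 PathHunter TrkB cells, cultured 48 h, were stimulated 3 h with peptide or BDNF, then detection reagent added for 60 min at room temperature; luminescence read. Activity (%) scaled from unstimulated (0%) to maximal BDNF signal (100%); peptides tested over 0.006104-100 nM, 0.032-100 nM or 0.01-10 nM ranges.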

*1 amine or outer side, *2 acyl side, *3 side chain or, on linkers, in order; H or OH if unused. Where a SMILES comes first, the peptide text is derived from it. Bridges are numbered along the chain shown (N, C = ends). Roman numbers before positions name the chains, in order. [ ]: non-standard residue; d: D form. CO(CH2CH2O)13CH2CH2CO = O=C(CCOCCOCCOCCOCCOCCOCCOCCOCCOCCOCCOCCOCCOCCC(=O)[*:2])[*:1]; 3Pal = N[C@@H](Cc1cccnc1)C(=O)O

Sequence of TrkB (Q16620 32-822): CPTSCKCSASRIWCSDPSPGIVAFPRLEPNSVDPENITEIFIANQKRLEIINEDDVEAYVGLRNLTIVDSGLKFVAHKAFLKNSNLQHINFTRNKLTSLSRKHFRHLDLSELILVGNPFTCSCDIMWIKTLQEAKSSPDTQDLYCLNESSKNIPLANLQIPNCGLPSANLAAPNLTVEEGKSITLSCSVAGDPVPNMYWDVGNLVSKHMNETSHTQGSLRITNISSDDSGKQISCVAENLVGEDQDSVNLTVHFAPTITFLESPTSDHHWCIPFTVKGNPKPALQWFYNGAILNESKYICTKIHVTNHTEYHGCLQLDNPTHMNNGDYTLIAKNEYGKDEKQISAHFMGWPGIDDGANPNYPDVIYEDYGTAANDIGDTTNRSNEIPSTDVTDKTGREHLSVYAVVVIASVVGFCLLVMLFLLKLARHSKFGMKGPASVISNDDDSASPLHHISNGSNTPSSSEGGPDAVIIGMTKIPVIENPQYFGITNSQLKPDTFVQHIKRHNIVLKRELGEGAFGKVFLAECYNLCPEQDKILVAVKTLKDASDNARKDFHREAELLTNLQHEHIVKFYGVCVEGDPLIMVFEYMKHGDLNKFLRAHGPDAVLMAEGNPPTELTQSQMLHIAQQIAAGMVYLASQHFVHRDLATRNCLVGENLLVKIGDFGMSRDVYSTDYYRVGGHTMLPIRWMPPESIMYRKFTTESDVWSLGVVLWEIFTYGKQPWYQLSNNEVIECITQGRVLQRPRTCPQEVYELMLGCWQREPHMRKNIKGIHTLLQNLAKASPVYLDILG
T1 sequence (Q16620 32-822): as above

One may read the Emax as the greatest response seen or fitted, relative to the assay's reference. For `CC(C)[C@@H]1NC(=O)[C@H](Cc2cccnc2)NC(=O)[C@H](CCC(=O)O)NC(=O)[C@H](CO)NC(=O)[C@H](Cc2ccc(O)cc2)NC(=O)[C@H]([C@@H](C)O)NC(=O)[C@@H]2CCCN2C(=O)[C@H](Cc2c[nH]c3ccccc23)NC(=O)[C@H](Cc2cccnc2)NC(=O)[C@H](Cc2ccc(O)cc2)NC(=O)[C@@H]2CCCN2C(=O)[C@H](CO)NC(=O)[C@H](Cc2ccccc2)NC(=O)CSC[C@@H](C(=O)NCC(=O)N[C@@H](CCCCNC(=O)CCOCCOCCOCCOCCOCCOCCOCCOCCOCCOCCOCCOCCOCCC(=O)NCCCC[C@H](NC(=O)CNC(=O)[C@@H]2CSCC(=O)N[C@@H](Cc3ccccc3)C(=O)N[C@@H](CO)C(=O)N3CCC[C@H]3C(=O)N[C@@H](Cc3ccc(O)cc3)C(=O)N[C@@H](Cc3cccnc3)C(=O)N[C@@H](Cc3c[nH]c4ccccc34)C(=O)N3CCC[C@H]3C(=O)N[C@@H]([C@@H](C)O)C(=O)N[C@@H](Cc3ccc(O)cc3)C(=O)N[C@@H](CO)C(=O)N[C@@H](CCC(=O)O)C(=O)N[C@@H](Cc3cccnc3)C(=O)N[C@@H](C(C)C)C(=O)N[C@@H](CCC(=O)O)C(=O)N2)C(N)=O)C(N)=O)NC(=O)[C@H](CCC(=O)O)NC1=O` [compound 48] (I: {CH2CO}-FSPY[3Pal]WPTYSE[3Pal]VECGK-NH2 / II: {CH2CO}-FSPY[3Pal]WPTYSE[3Pal]VECGK-NH2; linker I:17-II:17 via CO(CH2CH2O)13CH2CH2CO; thioether I:N-I:15, II:N-II:15), the “NFAT Assay Results” value in test [1] is recorded as “A (The peptide with 50% or more activity when 1 nM of the peptide was added was evaluated as A)”. The Emax on TrkB was 102%.
Regarding `CC(C)[C@@H]1NC(=O)[C@H](Cc2cccnc2)NC(=O)[C@H](CCC(=O)O)NC(=O)[C@H](CO)NC(=O)[C@H](Cc2ccc(O)cc2)NC(=O)[C@H]([C@@H](C)O)NC(=O)[C@@H]2CCCN2C(=O)[C@H](Cc2c[nH]c3ccccc23)NC(=O)[C@H](Cc2cccnc2)NC(=O)[C@H](Cc2ccc(O)cc2)NC(=O)[C@@H]2CCCN2C(=O)[C@H](CCC(=O)O)NC(=O)[C@H](Cc2ccccc2)NC(=O)CSC[C@@H](C(=O)NCC(=O)N[C@@H](CCCCNC(=O)CCOCCOCCOCCOCCOCCOCCOCCOCCOCCOCCOCCOCCOCCC(=O)NCCCC[C@H](NC(=O)CNC(=O)[C@@H]2CSCC(=O)N[C@@H](Cc3ccccc3)C(=O)N[C@@H](CCC(=O)O)C(=O)N3CCC[C@H]3C(=O)N[C@@H](Cc3ccc(O)cc3)C(=O)N[C@@H](Cc3cccnc3)C(=O)N[C@@H](Cc3c[nH]c4ccccc34)C(=O)N3CCC[C@H]3C(=O)N[C@@H]([C@@H](C)O)C(=O)N[C@@H](Cc3ccc(O)cc3)C(=O)N[C@@H](CO)C(=O)N[C@@H](CCC(=O)O)C(=O)N[C@@H](Cc3cccnc3)C(=O)N[C@@H](C(C)C)C(=O)N[C@@H](CCC(=O)O)C(=O)N2)C(N)=O)C(N)=O)NC(=O)[C@H](CCC(=O)O)NC1=O` [compound 56] (I: {CH2CO}-FEPY[3Pal]WPTYSE[3Pal]VECGK-NH2 / II: {CH2CO}-FEPY[3Pal]WPTYSE[3Pal]VECGK-NH2; linker I:17-II:17 via CO(CH2CH2O)13CH2CH2CO; thioether I:N-I:15, II:N-II:15), the “NFAT Assay Results” value in test [1] is on record as “A (The peptide with 50% or more activity when 1 nM of the peptide was added was evaluated as A)”. At TrkB, this compound came in with an Emax of 93%.
